Tested on: HIV-1 (H9IIIB strain)
Experiment: Cell-Based HIV Infection Assay Using a Reporter (MT4-GFP cells)
Conditions: Human immunodeficiency virus 1, inflection point (IP) of viral growth inhibition; MT4-GFP cells infected with HIV-1 H9IIIB; 50% normal human serum; mean of at least two independent experiments; read-out: Cell Based IP (50% NHS)
Procedure, shortened: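 MT4-GFP cells (HIV LTR-driven GFP) bulk-infected with HIV-1 H9IIIB at low MOI for 24 h, washed, then exposed to compounds in RPMI plus 50% normal human serum, 0.4% DMSO. Infected cells counted at 24 and 48 h; R0 = 48 h/24 h ratio, inhibition normalised to DMSO and triple-drug control; IP from 4-parameter fit.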

SMILES	EC50 [nM]
N[C@H](C(=O)Nc1cccc(F)c1CCC1CNC2CCCS(=O)(=O)N1C2)[C@H](c1ccc(F)cc1)C1CCC(F)(F)CC1 (stereo partly drawn) [Example 61, (βS)-β-(4,4-difluorocyclohexyl)-N-{2-[2-(2,2-dioxido-2-thia-1,7-diazabicyclo[4.3.1]dec-9-yl)ethyl]-3-fluorophenyl}-4-fluoro-L-phenylalaninamide]	160
COC(=O)N[C@H](C(=O)Nc1cccc(F)c1CCC1CNC2CCCS(=O)(=O)N1C2)[C@H](c1ccc(F)cc1)C1CCC(F)(F)CC1 (stereo partly drawn) [Example 62, methyl [(1S,2S)-2-(4,4-difluorocyclohexyl)-1-({2-[2-(2,2-dioxido-2-thia-1,7-diazabicyclo[4.3.1]dec-9-yl)ethyl]-3-fluorophenyl}carbamoyl)-2-(4-fluorophenyl)ethyl]carbamate]	190
COC(=O)N[C@H](C(=O)Nc1cccc(F)c1CCC1CNC2CCCS(=O)(=O)N1C2)[C@@H](c1ccc(F)cc1)c1cccc(C(F)(F)F)c1 (stereo partly drawn) [Example 63, methyl [(1S)-2-({2-[2-(2,2-dioxido-2-thia-1,7-diazabicyclo[4.3.1]dec-9-yl)ethyl]-3-fluorophenyl}amino)-1-{(S)-(4-fluorophenyl)[3-(trifluoromethyl)phenyl]methyl}-2-oxoethyl]carbamate]	14
N[C@H](C(=O)Nc1cccc(F)c1CCC1CNC2CCCS(=O)(=O)N1C2)[C@H](c1ccc(F)cc1)C1CC(F)(F)C1 (stereo partly drawn) [Example 64, (βS)-β-(3,3-difluorocyclobutyl)-N-{2-[2-(2,2-dioxido-2-thia-1,7-diazabicyclo[4.3.1]dec-9-yl)ethyl]-3-fluorophenyl}-4-fluoro-L-phenylalaninamide]	260
COC(=O)N[C@H](C(=O)Nc1cccc(F)c1CCC1CNC2CCCS(=O)(=O)N1C2)[C@H](c1ccc(F)cc1)C1CC(F)(F)C1 (stereo partly drawn) [Example 65, methyl [(1S,2S)-2-(3,3-difluorocyclobutyl)-1-({2-[2-(2,2-dioxido-2-thia-1,7-diazabicyclo[4.3.1]dec-9-yl)ethyl]-3-fluorophenyl}carbamoyl)-2-(4-fluorophenyl)ethyl]carbamate]	47
COc1ccc([C@H](c2ccc(F)c(F)c2)[C@H](N)C(=O)Nc2cccc(F)c2CCC2CNC3CCCS(=O)(=O)N2C3)cn1 (stereo partly drawn) [Example 66, (βS)-N-{2-[2-(2,2-dioxido-2-thia-1,7-diazabicyclo[4.3.1]dec-9-yl)ethyl]-3-fluorophenyl}-3,4-difluoro-β-(6-methoxypyridin-3-yl)-L-phenylalaninamide]	8.2
COc1cc([C@H](c2ccc(Cl)c(F)c2)[C@H](N)C(=O)Nc2cccc(F)c2CCC2CNC3CCCS(=O)(=O)N2C3)ccn1 (stereo partly drawn) [Example 67, (βR)-4-chloro-N-{2-[2-(2,2-dioxido-2-thia-1,7-diazabicyclo[4.3.1]dec-9-yl)ethyl]-3-fluorophenyl}-3-fluoro-β-(2-methoxypyridin-4-yl)-L-phenylalaninamide]	4.5
COC(=O)N[C@H](C(=O)Nc1cccc(F)c1CCC1CNC2CCCS(=O)(=O)N1C2)[C@H](c1ccnc(OC)c1)c1ccc(Cl)c(F)c1 (stereo partly drawn) [Example 69, methyl [(1S,2R)-2-(4-chloro-3-fluorophenyl)-1-({2-[2-(2,2-dioxido-2-thia-1,7-diazabicyclo[4.3.1]dec-9-yl)ethyl]-3-fluorophenyl}carbamoyl)-2-(2-methoxypyridin-4-yl)ethyl]carbamate]	13
CCC(CC)[C@H](c1ccc(Cl)cc1)[C@H](N)C(=O)Nc1cccc(F)c1CCC1CNC2CCCS(=O)(=O)N1C2 (stereo partly drawn) [Example 70, (βR)-4-chloro-N-{2-[2-(2,2-dioxido-2-thia-1,7-diazabicyclo[4.3.1]dec-9-yl)ethyl]-3-fluorophenyl}-β-(1-ethylpropyl)-L-phenylalaninamide]	49
CCC(CC)[C@H](c1ccc(Cl)cc1)[C@H](NC(=O)OC)C(=O)Nc1cccc(F)c1CCC1CNC2CCCS(=O)(=O)N1C2 (stereo partly drawn) [Example 71, methyl [(1S,2R)-2-(4-chlorophenyl)-1-({2-[2-(2,2-dioxido-2-thia-1,7-diazabicyclo[4.3.1]dec-9-yl)ethyl]-3-fluorophenyl}carbamoyl)-3-ethylpentyl]carbamate]	41
N[C@H](C(=O)Nc1cccc(F)c1CCC1CNC2CCCS(=O)(=O)N1C2)[C@H](c1cncc(Cl)c1)c1ccc(Cl)c(F)c1 (stereo partly drawn) [Example 72, (βS)-4-chloro-β-(5-chloropyridin-3-yl)-N-{2-[2-(2,2-dioxido-2-thia-1,7-diazabicyclo[4.3.1]dec-9-yl)ethyl]-3-fluorophenyl}-3-fluoro-L-phenylalaninamide]	5.1
COC(=O)N[C@H](C(=O)Nc1cccc(F)c1CCC1CNC2CCCS(=O)(=O)N1C2)[C@H](c1cncc(Cl)c1)c1ccc(Cl)c(F)c1 (stereo partly drawn) [Example 73, methyl [(1S,2S)-2-(4-chloro-3-fluorophenyl)-2-(5-chloropyridin-3-yl)-1-({2-[2-(2,2-dioxido-2-thia-1,7-diazabicyclo[4.3.1]dec-9-yl)ethyl]-3-fluorophenyl}carbamoyl)ethyl]carbamate]	18
N[C@H](C(=O)Nc1cccc(F)c1CCC1CNC2CCCS(=O)(=O)N1C2)[C@H](CCC1CCOCC1)c1ccc(Cl)c(F)c1 (stereo partly drawn) [Example 74, (βR)-4-chloro-N-{2-[2-(2,2-dioxido-2-thia-1,7-diazabicyclo[4.3.1]dec-9-yl)ethyl]-3-fluorophenyl}-3-fluoro-β-[2-(tetrahydro-2H-pyran-4-yl)ethyl]-L-phenylalaninamide]	151
O=C(C[C@@H](c1ccc(Cl)c(F)c1)N1CCOCC1)N[C@H]1CCC[C@@H]1CC[C@H]1CN[C@@H]2CCCS(=O)(=O)N1C2 [Example 75, (3S)-3-(4-chloro-3-fluorophenyl)-N-[(1S,2R)-2-{2-[(6R,9S)-2,2-dioxido-2-thia-1,7-diazabicyclo[4.3.1]dec-9-yl]ethyl}cyclopentyl]-3-morpholin-4-ylpropanamide]	110
N[C@H](C(=O)N[C@H]1CCC[C@@H]1CC[C@H]1CN[C@@H]2CCCS(=O)(=O)N1C2)[C@H](c1cncc(C(F)(F)F)c1)c1ccc(Cl)c(F)c1 [Example 76, (βS)-4-chloro-N-[(1S,2R)-2-{2-[(6R,9S)-2,2-dioxido-2-thia-1,7-diazabicyclo[4.3.1]dec-9-yl]ethyl}cyclopentyl]-3-fluoro-β-[5-(trifluoromethyl)pyridin-3-yl]-L-phenylalaninamide]	30
COC(=O)N[C@H](C(=O)N[C@H]1CCC[C@@H]1CC[C@H]1CN[C@@H]2CCCS(=O)(=O)N1C2)[C@H](c1cncc(F)c1)c1ccc(Cl)c(F)c1 [Example 77, methyl [(1S,2S)-2-(4-chloro-3-fluorophenyl)-1-{[(1S,2R)-2-{2-[(6R,9S)-2,2-dioxido-2-thia-1,7-diazabicyclo[4.3.1]dec-9-yl]ethyl}cyclopentyl]carbamoyl}-2-(5-fluoropyridin-3-yl)ethyl]carbamate]	57
COC(=O)N[C@H](C(=O)N[C@H]1CCC[C@@H]1CC[C@H]1CN[C@@H]2CCCS(=O)(=O)N1C2)[C@@H](c1ccc(Cl)cc1)c1ccc(OC)nc1 [Example 78, methyl [(1S,2S)-2-(4-chlorophenyl)-1-{[(1S,2R)-2-{2-[(1S,2S)-2,2-dioxido-2-thia-1,7-diazabicyclo[4.3.1]dec-9-yl]ethyl}cyclopentyl]carbamoyl}-2-(6-methoxypyridin-3-yl)ethyl]carbamate]	38
